What was measured:
Format in all cases: cell-based
Proteus vulgaris = test: MIC against Gram-negative bacteria: Proteus vulgaris; details: for MIC: P. vulgaris
Outline: (§1)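 Purified recombinant human EGF domain proteins are tested by broth dilution in LB against a 5×10^5 CFU/mL inoculum, with two-fold serial dilutions run in triplicate. Plates are incubated at 37° C with shaking, and the MIC is read as the lowest protein concentration without growth.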

Citrobacter diversus = test: MIC against Gram-negative bacteria: Citrobacter diversus; details: for MIC: C. diversus
Outline: as §1

Serratia marcescens = test: MIC against Gram-negative bacteria: Serratia marcescens; details: for MIC: S. marcescens
Outline: as §1

E. coli BL21 = test: MIC against Gram-negative bacteria: E. coli BL21; details: E. coli BL21
Outline: as §1

Pseudomonas aeruginosa = test: MIC against Gram-negative bacteria: Pseudomonas aeruginosa; details: for MIC: P. aeruginosa
Outline: as §1

Moraxella catarrhalis = test: MIC against Gram-negative bacteria: Moraxella catarrhalis; details: for MIC: M. catarrhalis
Outline: as §1

Proteus mirabilis = test: MIC against Gram-negative bacteria: Proteus mirabilis; details: for MIC: P. mirabilis
Outline: as §1

Enterobacter cloacae = test: MIC against Gram-negative bacteria: Enterobacter cloacae; details: for MIC: E. cloacae
Outline: as §1

Klebsiella pneumonia = test: MIC against Gram-negative bacteria: Klebsiella pneumonia; details: for MIC: K. pneumonia
Outline: as §1

Aeromonas hydrophila = test: MIC against Gram-negative bacteria: Aeromonas hydrophila; details: for MIC: A. hydrophila
Outline: as §1

E. coli DH5α = test: Antibacterial activity: MIC and growth curve against E. coli DH5α in 96-well plate; details: minimal inhibitory concentration against E. coli DH5α; 96-well plate, 5×10^5 CFU/mL, 37° C., judged after 8 h
Outline: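 MIC taken as lowest protein level with no bacterial growth, tracked by A600 every 30 min during 37 °C, 175 rpm culture. Two-fold protein series 50-12.5 μg/mL final, triplicate wells, against 5×10^5 CFU/mL of LB-washed mid-log cells.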

[1] = Proteus vulgaris, 5×10^5 CFU/mL, 10 h cultivation at 37° C.
[2] = Citrobacter diversus, 5×10^5 CFU/mL, 10 h cultivation at 37° C.
[3] = Serratia marcescens, 5×10^5 CFU/mL, 10 h cultivation at 37° C.
[4] = 5×10^5 CFU/mL, 10 h cultivation at 37° C.
[5] = Pseudomonas aeruginosa, 5×10^5 CFU/mL, 10 h cultivation at 37° C.
[6] = Moraxella catarrhalis, 5×10^5 CFU/mL, 10 h cultivation at 37° C.
[7] = Proteus mirabilis, 5×10^5 CFU/mL, 10 h cultivation at 37° C.
[8] = Enterobacter cloacae, 5×10^5 CFU/mL, 10 h cultivation at 37° C.
[9] = Klebsiella pneumonia, 5×10^5 CFU/mL, 10 h cultivation at 37° C.
[10] = Aeromonas hydrophila, 5×10^5 CFU/mL, 10 h cultivation at 37° C.
[11] = Proteus vulgaris, 96-well plate, 5×10^5 CFU/mL, 37° C., 10 h
[12] = Citrobacter diversus, 96-well plate, 5×10^5 CFU/mL, 37° C., 10 h
[13] = Serratia marcescens, 96-well plate, 5×10^5 CFU/mL, 37° C., 10 h
[14] = 96-well plate, 5×10^5 CFU/mL, 37° C., 10 h
[15] = Pseudomonas aeruginosa, 96-well plate, 5×10^5 CFU/mL, 37° C., 10 h
[16] = Moraxella catarrhalis, 96-well plate, 5×10^5 CFU/mL, 37° C., 10 h
[17] = Proteus mirabilis, 96-well plate, 5×10^5 CFU/mL, 37° C., 10 h
[18] = Enterobacter cloacae, 96-well plate, 5×10^5 CFU/mL, 37° C., 10 h
[19] = Klebsiella pneumonia, 96-well plate, 5×10^5 CFU/mL, 37° C., 10 h
[20] = Aeromonas hydrophila, 96-well plate, 5×10^5 CFU/mL, 37° C., 10 h

PRT1479 (AKNECHPERTDGCQHFCLPGQESYTCSCAQGYRLGEDHKQCV; listed as Homo sapiens)
25 µg/mL: MIC against P. mirabilis (Proteus mirabilis; [7])
100 µg/mL: MIC against K. pneumonia (Klebsiella pneumonia; [9])
12.5 µg/mL: MIC against S. marcescens (Serratia marcescens; [3]) | MIC against E. coli BL21 (E. coli BL21; [4]) | MIC against M. catarrhalis (Moraxella catarrhalis; [6]) | MIC against A. hydrophila (Aeromonas hydrophila; [10])
50 µg/mL: MIC against P. vulgaris (Proteus vulgaris; [1]) | MIC against C. diversus (Citrobacter diversus; [2]) | MIC against P. aeruginosa (Pseudomonas aeruginosa; [5]) | MIC against E. cloacae (Enterobacter cloacae; [8]) | MIC (E. coli DH5α)

PRT1294 (DFDDCQDNKCKNGAHCTDAVNGYTCICPEGYSGLFCE; listed as Homo sapiens)
12.5 µg/mL: MIC against P. vulgaris (Proteus vulgaris; [11]) | MIC against E. coli BL21 (E. coli BL21; [14]) | MIC against M. catarrhalis (Moraxella catarrhalis; [16]) | MIC against K. pneumonia (Klebsiella pneumonia; [19]) | MIC against A. hydrophila (Aeromonas hydrophila; [20])
50 µg/mL: MIC against C. diversus (Citrobacter diversus; [12]) | MIC against S. marcescens (Serratia marcescens; [13]) | MIC against P. aeruginosa (Pseudomonas aeruginosa; [15]) | MIC against P. mirabilis (Proteus mirabilis; [17]) | MIC against E. cloacae (Enterobacter cloacae; [18]) | MIC (E. coli DH5α)

PRT1301 (DNDDCVAHKCRHGAQCVDTINGYTCTCPQGFSGPFCE; listed as Homo sapiens)
12.5 µg/mL: MIC against C. diversus (Citrobacter diversus; [12]) | MIC against E. coli BL21 (E. coli BL21; [14]) | MIC against P. aeruginosa (Pseudomonas aeruginosa; [15]) | MIC against P. mirabilis (Proteus mirabilis; [17]) | MIC against K. pneumonia (Klebsiella pneumonia; [19]) | MIC (E. coli DH5α)
25 µg/mL: MIC against P. vulgaris (Proteus vulgaris; [11]) | MIC against A. hydrophila (Aeromonas hydrophila; [20])
50 µg/mL: MIC against S. marcescens (Serratia marcescens; [13]) | MIC against M. catarrhalis (Moraxella catarrhalis; [16]) | MIC against E. cloacae (Enterobacter cloacae; [18])

PRT917 (DVNECGQKPGLCRHGGTCHNEVGSYRCVCRATHTGPNCE; listed as Homo sapiens)
12.5 µg/mL: MIC (Citrobacter diversus; 10 h cultivation at 37° C.) | MIC (Pseudomonas aeruginosa; 10 h cultivation at 37° C.)
25 µg/mL: MIC (Proteus vulgaris; 10 h cultivation at 37° C.) | MIC (Serratia marcescens; 10 h cultivation at 37° C.) | MIC (Proteus mirabilis; 10 h cultivation at 37° C.) | MIC (Klebsiella pneumonia; 10 h cultivation at 37° C.) | MIC (Aeromonas hydrophila; 10 h cultivation at 37° C.) | MIC (E. coli DH5α)
50 µg/mL: MIC (E. coli BL21; 10 h cultivation at 37° C.) | MIC (Moraxella catarrhalis; 10 h cultivation at 37° C.) | MIC (Enterobacter cloacae; 10 h cultivation at 37° C.)

PRT89 (TNGQCHCKEFHYRPRGSDSCLPCDCYPVGSTSRSCA; listed as Homo sapiens)
12.5 µg/mL: MIC (μg/mL) S. marcescens (Serratia marcescens; [13]) | MIC (μg/mL) P. aeruginosa (Pseudomonas aeruginosa; [15]) | MIC (μg/mL) M. catarrhalis (Moraxella catarrhalis; [16]) | MIC (μg/mL) K. pneumonia (Klebsiella pneumonia; [19])
50 µg/mL: MIC (μg/mL) P. vulgaris (Proteus vulgaris; [11]) | MIC (μg/mL) E. coli BL21 (E. coli BL21; [14]) | MIC (μg/mL) A. hydrophila (Aeromonas hydrophila; [20])
25 µg/mL: MIC (μg/mL) C. diversus (Citrobacter diversus; [12]) | MIC (μg/mL) P. mirabilis (Proteus mirabilis; [17]) | MIC (μg/mL) E. cloacae (Enterobacter cloacae; [18]) | MIC (E. coli DH5α)

PRT983 (VARSCRELQCPVGVPCQQTPRGPRCACPPGLSGPSCR; listed as Homo sapiens)
12.5 µg/mL: MIC (Proteus vulgaris; 10 h cultivation at 37° C.) | MIC (E. coli BL21; 10 h cultivation at 37° C.) | MIC (Moraxella catarrhalis; 10 h cultivation at 37° C.) | MIC (Enterobacter cloacae; 10 h cultivation at 37° C.)
25 µg/mL: MIC (Serratia marcescens; 10 h cultivation at 37° C.) | MIC (Pseudomonas aeruginosa; 10 h cultivation at 37° C.) | MIC (Aeromonas hydrophila; 10 h cultivation at 37° C.) | MIC (E. coli DH5α)
50 µg/mL: MIC (Citrobacter diversus; 10 h cultivation at 37° C.) | MIC (Proteus mirabilis; 10 h cultivation at 37° C.) | MIC (Klebsiella pneumonia; 10 h cultivation at 37° C.)

PRT1474 (IPDQCSPLPCNEDGYMSCKDGKASFTCTCKPGWQGEKCE; listed as Homo sapiens)
25 µg/mL: MIC against S. marcescens (Serratia marcescens; [3]) | MIC against P. aeruginosa (Pseudomonas aeruginosa; [5]) | MIC against M. catarrhalis (Moraxella catarrhalis; [6]) | MIC against K. pneumonia (Klebsiella pneumonia; [9]) | MIC against A. hydrophila (Aeromonas hydrophila; [10])
50 µg/mL: MIC against P. mirabilis (Proteus mirabilis; [7]) | MIC against E. cloacae (Enterobacter cloacae; [8]) | MIC (E. coli DH5α)
12.5 µg/mL: MIC against P. vulgaris (Proteus vulgaris; [1]) | MIC against C. diversus (Citrobacter diversus; [2]) | MIC against E. coli BL21 (E. coli BL21; [4])

From patent US9833497B2, “Human originated EGF domain proteins and use of the same” (CHENGDU SOURCEBIO LIMITED-LIABILITY COMPANY, priority 2013, dated 2017)
